Legend:
[1] = tested on: MOSEC IDB cells; experiment: Ovarian tumor orthotopic animal model; type: in vivo, mice; conditions: 30 mg/Kg i.p. 5 days per week during 2 weeks
Description: Experiments were performed using MOSEC IDB cells (mouse ovarian surface epithelial cells) with cloned luciferase reporter and cells implanted on mice ovarian region (Yu-Hung Huang et al, Claudin-3 gene silencing with siRNA suppresses ovarian tumor growth and metastasis. 3426-3430 PNAS 2009. vol. 106, no. 9).
FIG. 6A represents a Pet picture of luciferase activity in vivo tumor (Compound 3 treated mice: 30 mg/Kg i.p. 5 days per week during 2 weeks).

[2] = tested on: haematological cancer cell lines; experiment: Apoptosis induction in haematological cancer cell lines; type: cell-based
[3] = tested on: EHEB cells; experiment: Expression of proteins by immunoblotting in EHEB cells; type: cell-based, human; conditions: 10 μM
Description: Expression of different proteins in Compound 3-treated EHEB cells (FIG. 7B). Cells were treated with 10 μM Compound 3 for the indicated times and analyzed by immunoblotting with specific antibodies for the indicated proteins. The migration positions of the different proteins are indicated. β-actin was used as a loading control. Data shown are representative of three experiments performed.

[4] = tested on: HL-60 (acute myeloid leukaemia); experiment: Apoptosis, sub-G1 peak by flow cytometry; type: cell-based, human; conditions: 10 μM, 24 h
Description: (§1) Incubation of Compound 3 with different human hematological cancer cell lines, including CLL, MM, acute T-cell and acute myeloid leukaemia cell lines, induced apoptosis, as assessed by the appearance of cells with a DNA content less than G1, characteristic of early apoptosis (sub-G1 peak; after 6-9 h treatment). More than 20% apoptosis was induced after 24 h treatment of 10 μM Compound 3 with EHEB (CLL), RPMI-8226 (MM), Jurkat (acute T-cell leukaemia) and HL-60 (acute myeloid leukaemia) cells.
(§2) Induction of apoptosis in EHEB cells by Compound 3 (FIG. 7A): EHEB cells were incubated for the indicated times with 10 μM Compound 3, and apoptosis was then quantitated as percentage of cells in the sub-G1 region in cell cycle analysis by flow cytometry. The position of the sub-G1 peak (hypodiploidy), integrated by apoptotic cells, as well as the G0/G1 and G2/M peaks are indicated by arrows. Untreated control cells were run in parallel. The percentage of cells with a DNA content less than G1 (sub-G1) is indicated in each histogram. The experiment shown is representative of three performed. Briefly, cells (5×10^5) were centrifuged and fixed overnight in 70% ethanol at 4° C. Cells were washed 3 times with PBS, incubated for 1 h with 1 mg/ml RNaseA and 20 μg/ml propidium iodide at room temperature, and then analyzed for cell cycle with a Becton Dickinson FACS Calibur flow cytometer (San Jose, Calif.). Quantitation of apoptotic cells was calculated as the percentage of cells in the sub-G1 region (hypodiploidy) in cell cycle analysis.

[5] = tested on: RPMI-8226 (MM); experiment: Apoptosis, sub-G1 peak by flow cytometry; type: cell-based, human; conditions: 10 μM, 24 h
Description: as §1, §2

[6] = tested on: EHEB (CLL); experiment: Apoptosis, sub-G1 peak by flow cytometry; type: cell-based, human; conditions: 10 μM, 24 h
Description: as §1, §2

[7] = tested on: Jurkat (acute T-cell leukaemia); experiment: Apoptosis, sub-G1 peak by flow cytometry; type: cell-based, human; conditions: 10 μM, 24 h
Description: as §1, §2

Fc1ccc(CNCCCC=C(c2ccccc2)c2ccccc2)cc1 [Compound 3, (5,5-diphenyl-pent-4-enyl)-(4-fluoro-benzyl)-amine hydrocloride] was tested, and the “in vivo antitumor activity, ovarian tumor area” value [1] was “potent in vivo antitumor activity reducing the tumor area”, the “concentration inducing apoptosis in haematological cancer cell lines” value [2] was ~10^−6 M and the caspase-3 [3] was “activation”. For the same compound, the “cleavage of PARP” value [3] was “rapid cleavage”, the Caspase-4 ([3]; EHEB cells) was “activated” and the caspase-9 ([3]; EHEB cells) was “activated”. The “induction of autophagy (LC3-II formation)” value ([3]; EHEB cells) was “very rapid and potent induction of autophagy”, the apoptosis [4] was “More than 20%” and the apoptosis [5] was “More than 20%”. For the same compound, the apoptosis [6] was “More than 20%” and the apoptosis [7] was “More than 20%”.

Source: patent publication US20130296346A1, “DIPHENYL-AMINE DERIVATIVES: USES, PROCESS OF SYNTHESIS AND PHARMACEUTICAL COMPOSITIONS” (Faes Farma, S.A., priority 2010, published 2013)
